# pKi: −log10 of the molar value. Read-outs that look alike come from different tables or passages of the source.
# How the values were obtained:
# PKCα = biological target: T1, PKCα (Homo sapiens, UniProt P17252); test: PKC competitive binding assay with [3H]-phorbol dibutyrate (PKCα)
# T1 construct: purchased Invitrogen
# Procedure: (§1) With a panel of compounds bearing diverse functionality at C13, we began to explore how these modifications affect PKC binding and biological function. Because an obvious prerequisite for PKC pathway involvement is binding to PKC, compounds were initially evaluated for PKC affinity in a cell-free competitive binding assay with tritiated phorbol dibutyrate ([^3H]-PDBu). Assays were performed with representative members of both the conventional (PKCα) and novel (PKCδ) PKC families. Subsequently, compounds were assayed for PKC isoform translocation in real time in living cells using an optical assay. Translocation to the plasma membrane is the hallmark of PKC activation[18],[57],[60] and therefore monitoring the subcellular localization of a PKCδ-GFP fusion protein via confocal microscopy offers a convenient method for determining whether a compound enters a cell and engages its PKC isoform target. Finally and of clinical significance, we also determined the effect of compounds on CD22 surface expression in vitro in NALM6 cells, an ALL cell line previously studied in connection with CD22-targeted CAR T cell therapy, and two additional lymphoma cell lines[11],[31],[65].
# (§2) PKC Binding Assay Protocol […]
# (§3) competition with 3H-phorbol-12,13-dibutyrate (3H-PDBu) as described below. This procedure entails a glass-fiber filtration method to determine bound radioligand.
# (§4) Preparation of PKC binding assay buffer
# (§5) To a 50 mL polypropylene tube was added Tris-HCl (pH 7.4, 1 M, 1 mL), KCl (1 M, 2 mL), CaCl2 (0.1 M, 30 μL), and bovine serum albumin (BSA, 40 mg, Sigma-Aldrich). This mixture was diluted to 20 mL with deionized H2O and mixed gently. The buffer was stored on ice until use. The final […]
# (§6) Supplementary Table1. PKC binding assay buffer composition.
# (§7) Preparation of phosphatidylserine (PS) vesicles
# (§8) For every two assays, 3.5 mg phosphatidylserine (Avanti Polar Lipids, porcine, 25 mg/mL CHCl3 solution) was concentrated by removing chloroform under a stream of nitrogen followed by reduced pressure. The solid PS was suspended as vesicles in freshly prepared PKC binding assay buffer (3.5 mL) by sonicating six times for 30 sec, with a 30 sec rest between sonications (Branson Sonifier 250, power = 2, 50% duty cycle). The resulting milky cloudy mixture (1 mg/mL) was stored […]
# (§9) Preparation of PKC isoform solution
# (§10) Assay PKC was prepared by dissolving a 4 μg aliquot of the indicated recombinant human PKC isoform (Invitrogen) into 11.6 mL of PKC binding assay buffer (this amount is sufficient for two assays). The diluted PKC was stored on ice for immediate use.
# (§11) Preparation of 3H-PDBu solution
# (§12) 3H-PDBu (American Radiolabeled Chemicals, Inc.; 1 mCi/mL acetone solution; specific activity: […]) was diluted 10-fold with DMSO. The resulting 500 nM stock solution was further diluted with DMSO to 30 nM.
# (§13) Preparation of analog compound dilutions
# (§14) Compound dilutions were prepared by serially diluting from a chosen "high" concentration by factors of 3 or 4. For each analog compound, seven concentrations were used to define the […]
# (§15) To a polypropylene tube was added 3.3 mL of 1 mg/mL PS vesicles solution, 11 mL of PKC isoform solution, and 1.1 mL of 30 nM 3H-PDBu solution were added. The resulting solution was vortexed to mix and stored on ice.
# (§16) PKC binding assay protocol
# (§17) - Glass-fiber filters (Whatman GF/B) were prepared by soaking them in a solution of aqueous polyethyleneimine (10% by vol, 18 mL) in deionized water (600 mL) for ≥1h.
# (§18) - 500 mL "rinsing buffer" of 20 mM Tris, pH 7.4 was cooled on ice for the duration of the incubation period and for the remainder of the assay.
# Triplicate data points were obtained for each analog concentration. For each data point, 280 μL of "Master Mix" Solution and 20 μL of analog compound at a specified concentration were added to a polypropylene tube. Non-specific 3H-PDBu binding was assessed in triplicate by substitution
# [1] = tested on: CD22 surface expression in NALM6 cells; test: CD22 surface expression in NALM6 cells (flow cytometry); format: cell-based, human
# Procedure: CD22 Surface Expression Protocol – NALM6 Cells […]
# unless otherwise noted below) at 37 ° C in an incubator (5% CO2). Cell cultures were maintained […]
# Cell suspension from a confluent T75 flask (Fisher) was transferred to a 15 mL falcon tube and centrifuged at 1100 rpm for 7 minutes. The supernatant was aspirated, and the cell pellet was […]
# Cells were counted using a Countess II Automated Cell
# 199 µL of this stock was added to 24 wells (enough for triplicate measurements for 8 different experimental conditions) in a 96-well plate. Dosing was […]
# each experiment. 1 µL of DMSO or the appropriate stock solution of compound in DMSO was added to each well. Cells were incubated for 24 hours, at which point the cell suspensions were transferred to 1.5 mL Eppendorf tubes and diluted with 1.0 mL of PBS (Hyclone, without Ca2+ or Mg2+). Samples were centrifuged at 2000 rpm for 5 min at RT. The supernatant was aspirated, […]
# Cells were sub-cultured between 2 […]
# surface expression was assayed by flow cytometry.
# Cells from one well were counted using a Countess II Automated Cell Counter (Fisher). ~200,000 – 300,000 cells from each well were added to 1.5 mL Eppendorf tubes containing PBS (final volume ~1.2 mL). The cell suspensions were centrifuged at 1500 rpm for 7 minutes at 4 °C. The supernatant was aspirated, and the cell pellet was resuspended in 99 µL of pre-chilled FACS […]
# buffer (0.5% w/v BSA in PBS). […]
# minutes. Samples were then diluted with an additional 1.0 mL of FACS buffer and centrifuged at 1500 rpm for 7 minutes at 4 °C. The supernatant was aspirated, the cell pellets were resuspended in 200 µL FACS buffer, and the resulting suspensions were transferred to FACS tubes (Fisher, […]
# Cells were stained with DAPI and CD22 surface expression was analyzed using the FACScan Analyzer at the Stanford Shared FACS Facility. Data analysis was performed using FlowJo and Microsoft Excel.
# PKC = PKC competitive binding assay, isoform not specified; design: species or system human
# Procedure: as §1, §2, §3, §4, §5, §6, §7, §8, §9, §10, §11, §12, §13, §14, §15, §16
# - Glass-fiber filters (Whatman GF/B) were prepared by soaking them in a solution of […]
# [2] = tested on: CD22 surface expression in JB cells; test: CD22 surface expression in JB cells (flow cytometry); conditions: 1 nM or 10 nM, 48 h, n = 6
# Procedure: (§19) Compound was washed out and cells were sub-cultured for the indicated times. […] CD22 surface expression was then assayed by flow cytometry (n = 3 biological replicates; data presented as mean values ± SE). c JB cells were incubated with 1 nM (blue bars) or 10 nM (orange bars) of compound for 48 h. CD22 surface expression was then assayed by flow cytometry (n = 6 biological replicates; data presented as mean values ± SE). d 2F7 cells were incubated with 1 nM (blue bars) or 10 nM (orange bars) of compound for 48 h. CD22 surface expression was then assayed by flow cytometry (n = 6 biological replicates; data presented as mean values ± SE).
# (§20) JB is an Epstein–Barr virus (EBV)-negative AIDS-lymphoma cell line originally grown out of a bone marrow sample derived from an HIV+ individual, which harbors the Burkitt lymphoma translocation[66]. 2F7 is an AIDS-associated non-Hodgkin’s lymphoma cell line of the Burkitt subtype, which is positive for EBV[67].
# (§21) AIDS-NHL cell lines were incubated in IF10 medium, consisting of IMDM
# (§22) medium (Life technologies) containing 10% fetal bovine serum (FBS, Omega Scientific), 100
# (§23) units/mL of penicillin, and 100 μg/ml of streptomycin (Invitrogen). Cells were incubated at 37 °C
# (§24) AIDS-NHL cells were cultured in a u-bottomed 96-well
# (§25) tissue culture plates with a cell density of 200,000 cells/well in a 200 μL volume of IF10 media
# (§26) were exposed to compound for the either 24 or 48 h before staining and flow cytometric analysis
# (§27) Cells in each well were washed with phosphate buffered saline (PBS) containing
# (§28) 2% FBS, then cells were centrifuged for 9 min at 233 xg and resuspended in 50 μL of a 1:1 dilution
# (§29) of phosphate buffered saline (PBS): Human AB serum (Sigma).
# (§30) cells were washed and fixed in 2% paraformaldehyde. Stained samples were stored at 4 °C.
# (§31) cytometry samples were analyzed using a FACSCelesta (BD Biosciences) flow cytometer and data
# (§32) were analyzed using FlowJo software (version 10).
# [3] = tested on: CD22 surface expression in 2F7 cells; test: CD22 surface expression in 2F7 cells (flow cytometry); conditions: 1 nM or 10 nM, 48 h, n = 6
# Procedure: as §19, §20, §21, §22, §23, §24, §25, §26, §27, §28, §29, §30, §31, §32
# PKCδ = biological target: T2, PKCδ (Homo sapiens, UniProt Q05655); test: PKC competitive binding assay with [3H]-phorbol dibutyrate (PKCδ); conditions: cell-free, competition with [3H]-PDBu, PS vesicles
# T2 construct: purchased Invitrogen
# Procedure: as §1, §2, §3, §4, §5, §6, §7, §8, §9
# Assay PKC was prepared by dissolving a 4 μg aliquot of the indicated recombinant human PKC isoform (Invitrogen) into 11.6 mL of PKC binding assay buffer (this amount is sufficient for two assays). The diluted PKC was stored on ice for immediate use. […]
# μCi/mmol) was diluted 10-fold with DMSO. The resulting 500 nM stock solution was further diluted with DMSO to 30 nM.
# as §13, §14, §15, §16, §17, §18
# Triplicate data points were obtained for each analog concentration. For each data point, 280 μL of "Master Mix" Solution and 20 μL of analog compound at a specified concentration were added to a polypropylene tube. Non-specific 3H-PDBu binding was assessed in triplicate by substitution […]
# μM). Maximal 3H-PDBu binding was assessed in triplicate by substitution of the analog compound with 20 μL DMSO. The solutions were vortexed to mix, incubated at 37 °C for 10 min, and […]
# PKCδ-GFP fusion protein = biological target: T3, PKCδ-GFP fusion protein (Homo sapiens, UniProt Q05655); test: PKCδ-GFP translocation assay in living CHO-k1 cells (confocal microscopy); format: cell-based, Chinese hamster; conditions: for minimum effective concentration required to induce translocation of PKC-GFP to the membrane: tested at 200 and 1000 nM
# T3 construct: expressed in transfected cells; host or cells: CHO-k1 (Chinese hamster ovary, ATCC)
# Procedure: as §1
# Scale bar represents 25 μm. Experiments performed in n = 3 biological replicates. b–d Cytosolic fluorescence normalized to t = 0 (time immediately prior to addition of compound to media) and plotted against time. Error bars excluded for clarity (data presented as the mean of n = 3 biological replicates). Individual curves with error bars included in Supplementary Information.
# PKCδ-GFP Translocation Assay Protocol
# Chinese hamster ovary factor K1 (CHO-k1, ATCC) cells were cultured in F-12 Kaighn’s media (Hyclone, 10% fetal bovine serum, 1% penicillin/streptomycin added, reffered to as F-12 +/+ below) at 37 ° C in an incubator (5% CO2). Cell cultures were maintained by splitting cells 1:3 when they reached ~75-100% confluence (every 2-3 days) as follows:
# (Gibco) was used to remove the cells from the culture flask (T75, Falcon). 1 mL of the cell suspension was then added to 9 mL of fresh F-12 +/+ and the sample was sub-cultured until reaching confluence (~2-3 days).
# Cells were counted using a Countess II Automated Cell Counter (Fisher). The cell suspension was diluted to 240,000 cells/mL with fresh F-12 +/+ and 2.5 mL of this diluted stock was added to one well in a 6-well plate. The cells were then cultured for 24 hours.
# Cells were transfected with Lipofectamine 2000 reagent (Invitrogen) or DA 13:11 at a 10:1 charge […]
# F-12 +/+ was aspirated and cells were washed with F-12 -/-. 2 mL of fresh F-12 -/- was then added to each well, taking care not to disturb adherent cells. For each well of CHO-k1 cells, 12.5 µL Lipofectamine 2000 reagent (Invitrogen) was added to 250 µL Opti-MEM reduced serum media (Invitrogen) in a polypropylene tube and incubated for 20 minutes at RT. Meanwhile, for each well, 4 µg of PKCδ-GFP pDNA and 250 µL Opti-MEM reduced serum media was added to a separate polypropylene tube. 250 µL of the Lipofectamine 2000 suspension was added to the DNA suspension and the solution incubated for 30 minutes at RT. 500 µL of the Lipofectamine/DNA suspension was added to the respective wells of the 6-well plate. The cells were then incubated at 37 ° C (5% CO2) for ~24 hrs.
# F-12 +/+ was aspirated and cells were washed with F-12 -/-. 2.4 mL of fresh F-12 -/- was then added to each well, taking care not to disturb adherent cells. A 4 µg aliquot of PKCδ-GFP pDNA was added to PBS (pH 5.5, final volume 100 µL). 5.6 µL of DA 13:11 (2 mM stock in DMSO) was then added to the DNA solution, and the mixture was gently mixed (by flicking) for 20 seconds, at which point it was added directly to the respective wells of the 6-well plate.
# T3 sequence (Q05655 whole entry, the tested form may be a part): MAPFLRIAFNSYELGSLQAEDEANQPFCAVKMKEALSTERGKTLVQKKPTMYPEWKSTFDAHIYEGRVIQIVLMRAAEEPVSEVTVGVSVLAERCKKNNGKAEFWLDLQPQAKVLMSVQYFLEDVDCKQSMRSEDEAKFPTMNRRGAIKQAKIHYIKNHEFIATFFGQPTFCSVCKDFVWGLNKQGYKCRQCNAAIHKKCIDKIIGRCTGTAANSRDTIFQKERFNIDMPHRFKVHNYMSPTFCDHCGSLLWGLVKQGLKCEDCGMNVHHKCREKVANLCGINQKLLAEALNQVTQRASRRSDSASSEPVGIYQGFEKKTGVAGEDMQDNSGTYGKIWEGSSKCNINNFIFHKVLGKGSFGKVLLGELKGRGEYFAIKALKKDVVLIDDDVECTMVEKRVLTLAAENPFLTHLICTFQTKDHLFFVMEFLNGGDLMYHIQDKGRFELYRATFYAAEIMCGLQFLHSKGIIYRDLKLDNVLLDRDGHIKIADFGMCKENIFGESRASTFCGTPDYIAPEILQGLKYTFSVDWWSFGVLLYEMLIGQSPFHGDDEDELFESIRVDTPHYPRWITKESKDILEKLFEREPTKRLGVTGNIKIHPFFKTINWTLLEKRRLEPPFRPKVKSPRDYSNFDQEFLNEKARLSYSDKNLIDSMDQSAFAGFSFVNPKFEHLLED
# T2 sequence (Q05655 whole entry): as the sequence (Q05655 whole entry, the tested form may be a part) above
smiles,measurement,setting,value
"CCC/C=C/C=C/C(=O)O[C@H]1/C(=C/C(=O)OC)C[C@H]2C[C@H]([C@@H](C)O)OC(=O)C[C@H](O)C[C@@H]3C[C@H](OC(C)=O)C(C)(C)[C@](O)(C[C@@H]4C/C(=C/C(=O)OC)C[C@H](/C=C/C(C)(C)[C@]1(O)O2)O4)O3 [Bryostatin 1, reference compound]",pKi,PKCα,9.10
same,duration of sustained increase in CD22 surface expression following treatment,"[1]; NALM6 cells, 10 nM for 24 h, then washout and sub-culture",up to 7 days
same,increase in CD22 surface density,"[1]; NALM6 cells, 24 h incubation, Fig. 6",> 2 fold
same,PKC binding affinity in words,PKC; conventional and novel PKC isoforms,single-digit nanomolar
same,upregulation of CD22 surface expression,[2],~ 2 fold
same,upregulation of CD22 surface expression,[3],~ 2 fold
CCCC=CC=CC(=O)OC1C(=CC(=O)OC)CC2CC(C(C)O)OC(=O)CC(O)CC3CC(OC(C)=O)C(C)(C)C(O)(CC4CC(=CC(=O)OC)CC(C=CC(C)(C)C1(O)O2)O4)O3 (centres unmarked) [SUW201],pKi,"PKCα; read-out: Ki PKCα, cell-free, competition with [3H]-PDBu, PS vesicles",9.27
same,upregulation of CD22 surface expression,[2],~ 2 fold
same,upregulation of CD22 surface expression,[3],~ 2 fold
CCCC=CC=CC(=O)OC1C(=CC(=O)OC)CC2CC(C(C)O)OC(=O)CC(O)CC3CC(OC(C)=O)C(C)(C)C(O)(CC4CC(=CC(=O)OCc5ccccc5)CC(C=CC(C)(C)C1(O)O2)O4)O3 (centres unmarked) [SUW219],pKi,"PKCα; cell-free, competition with [3H]-PDBu, PS vesicles, read-out: Ki PKCα",7.43
same,pKi,PKCδ,7.60
same,Emax at 1 µM,"PKCδ-GFP fusion protein; CHO-K1, 1000 nM compound, CHO-k1 cells, n = 3, read-out: % Translocation (maximum translocation of PKCδ-GFP to the plasma membrane)",60%
same,minimum effective concentration required to induce translocation of PKC-GFP to the membrane,PKCδ-GFP fusion protein; CHO-k1 cells,1000 nM
same,decrease in affinity to PKC,"PKC; benzyl enoates, (Z) olefin geometry, comparator not stated",~ 2 fold
C=CCOC(=O)/C=C1/C[C@H]2C[C@]3(O)O[C@H](C[C@@H](O)CC(=O)O[C@@H]([C@@H](C)O)C[C@@H]4C/C(=C\C(=O)OC)[C@H](OC(=O)/C=C/C=C/CCC)[C@@](O)(O4)C(C)(C)/C=C/[C@@H](C1)O2)C[C@H](OC(C)=O)C3(C)C [SUW229],Emax at 0.2 µM,"PKCδ-GFP fusion protein; CHO-K1, 200 nM compound, CHO-k1 cells, n = 3, read-out: % Translocation (maximum translocation of PKCδ-GFP to the plasma membrane)",50%
same,minimum effective concentration required to induce translocation of PKC-GFP to the membrane,PKCδ-GFP fusion protein; CHO-k1 cells,200 nM
same,PKC activation dynamics (shape of translocation curve),"PKCδ-GFP fusion protein; Fig. 5c, d",more sustained linear activation dynamics
same,fold induction at 0.001 µM,"[1]; Homo sapiens, NALM-6, 24 h, NALM6 cells at 1 nM relative to DMSO control, 24 h incubation, washout, 24 h sub-culture, n = 3, read-out: Fold increase CD22 expression",2.35
same,upregulation of CD22 surface expression,[2],~ 2 fold
same,upregulation of CD22 surface expression,[3],~ 2 fold
